In patent US9821002B2, “Method for alleviating radiation injury with isorhamnetin-3-O-β-D-glucoside” (Sinotai Oncology Associate., Ltd., priority 2015, dated 2017):

Legend:
NMuMG cells = assay: Apoptosis assay (FITC Annexin V/PI) after X-ray irradiation; assay type: cell-based, mouse; settings: 2 h pretreatment, X-ray 15 Gy, 72 hours, mean ± SEM
Description: (§1) Four groups of BNL CL.2 cells (i.e., a normal control group referred to as Normal Control Group 1-A, an X-ray control group referred to as X-Ray Control Group 1-A, and two experimental groups referred to as Experimental Groups 1-A to 2-A), and six groups of NMuMG cells (i.e., a normal control group referred to as Normal Control Group 1-B, an X-ray control group referred to as X-Ray Control Group 1-B, two isorhamnetin groups referred to as Isorhamnetin Groups 1 to 2, and two experimental groups referred to as Experimental Groups 1-B to 2-B), were prepared based on the procedure set forth in “Source and cultivation of cell lines” of “Experimental materials”. BNL CL.2 cells in each group were cultivated using 5 mL of a corresponding medium shown in Table 1 and a 6-cm Petri dish in an amount of 2×10^5 cells per dish. Likewise, NMuMG cells in each group were cultivated using 5 mL of a corresponding medium shown in Table 1 and a 6-cm Petri dish in an amount of 2.5×10^5 cells per dish. The cultivation was conducted in an incubator (37° C., 5% CO2) for 24 hours.
(§2) Subsequently, medium was replaced with fresh medium. The obtained cultures in Experimental Groups 1-A, 1-B, 2-A, and 2-B were pretreated with the stock solution of isorhamnetin-3-O-β-D-glucoside, and the obtained cultures in Isorhamnetin Groups 1 to 2 were pretreated with the stock solution of isorhamnetin.
(§3) The culture in each group was then cultivated in an incubator (37° C., 5% CO2) for two hours. The resultant culture was used for the following experiments in sections B to D.
(§4) The cultures in X-Ray Control Group 1-A, X-Ray Control Group 1-B, Isorhamnetin Group 1, Isorhamnetin Group 2, Experimental Group 1-A, Experimental Group 1-B, Experimental Group 2-A, and Experimental Group 2-B, prepared according to section A of “Experimental procedures” in this example, were subjected to X-ray irradiation using a linear accelerator at a dose of 15 Gy. The cultures in Normal Control Groups 1-A and 1-B received no X-ray irradiation treatment. The culture of BNL CL.2 cells in each group was cultivated using a 6-cm Petri dish in an incubator (37° C., 5% CO2) for 96 hours, and the culture of NMuMG cells in each group was cultivated using a 6-cm Petri dish in an incubator (37° C., 5% CO2) for 72 hours. 1 mL of trypsin-EDTA was added to the culture in each group so as to detach the cells from the bottom of the Petri dish. Following this, 1 mL of a fresh medium (corresponding to the medium described in Table 1) was added to neutralize the activity of the trypsin, and the resultant cell suspension was transferred to a centrifuge tube with a pipette, followed by centrifugation at 1200 rpm for three minutes. The supernatant was removed, and the cell pellet thus obtained was washed once with cold PBS (pH 7.4), followed by centrifugation at 1200 rpm for 3 minutes. The supernatant was removed, and 100 μL of cold Annexin V binding buffer (BD Pharmingen™) was added to sufficiently re-suspend the cell pellet thereby obtaining a cell suspension having a cell concentration of 1.0×10^6 cells/mL. Afterward, 5 μL of FITC Annexin V (BD Pharmingen™) and 5 μL of propidium iodide (PI) staining solution (BD Pharmingen™) were added to the obtained cell suspension, followed by mixing evenly and standing in the dark at 4° C. for 30 minutes so as to obtain stained cells.
(§5) Subsequently, the stained cells were analyzed using BD Accuri™ C6 flow cytometry, in which cells that could be stained with FITC Annexin V but not with PI (i.e., FITC Annexin V positive and PI negative) represented cells that were induced with early apoptosis; cells stained with both FITC Annexin V and PI (i.e., FITC Annexin V positive and PI positive) represented cells that were induced with late apoptosis; and cells that could not be stained with FITC Annexin V and PI (i.e., FITC Annexin V negative and PI negative) represented viable cells. The number of stained cells was calculated using BD Accuri™ C6 software. […]

BNL CL.2 cells = assay: as above; assay type: cell-based, mouse; settings: 2 h pretreatment, X-ray 15 Gy, 96 hours, mean ± SEM
Description: as §1, §2, §3, §4, §5

Q: For COc1cc(-c2oc3cc(O)cc(O)c3c(=O)c2O[C@@H]2O[C@H](CO)[C@@H](O)[C@H](O)[C@H]2O)ccc1O [isorhamnetin-3-O-β-D-glucoside], which Apoptosis percentage (NMuMG cells; 15 μM) is on record?
A: 17.77 ± 0.88 %

Q: What about the Apoptosis percentage (NMuMG cells; 30 μM) of the same molecule?
A: 16.5 ± 0.62 %

Q: What about the Apoptosis percentage (BNL CL.2 cells; 5 μM) of the same molecule?
A: 30.28 ± 3.09%

Q: What about the Apoptosis percentage (BNL CL.2 cells; 30 μM) of the same molecule?
A: 29.35 ± 1.92 %
